Measurements reported in patent publication US20110166196A1, “TREATMENT AND PROPHYLAXIS OF EPILEPSY AND FEBRILE SEIZURES” (priority 2008, published 2011).

Tests used:
[1] = system: synapses between CA3 and CA1 pyramidal cells; assay: Field EPSP recordings in hippocampal slices; format: cell-based, rat
Protocol: The maximal initial slope of fEPSPs was calculated using a LabVIEW-based program (National Instruments). The peak amplitude of each EPSC was measured by comparing a 10 msec time period immediately prior to the stimulus with the peak of the EPSC using this program as well. Occasionally polysynaptic responses were evoked, and in these cases, only the initial monosynaptic event was measured. To positively identify LTD, EPSCs measured every 10 seconds were averaged in 1 minute intervals. EPSC amplitude values were normalized to control pre-HFS EPSC amplitude values (baseline period of at least 5 minutes prior to HFS) and subjected to analysis of variance (ANOVA) repeated measures analysis with a post-hoc Dunnett's test (GraphPad Prism, Version 4). […] EPSC amplitude values 15 to 20 minutes post-HFS were compared between control LTD experiments and those carried out either in transgenic TRPV1^−/− mice, or in the presence of drug using a t-test (unpaired, two-tailed, with Welch's correction if the variances between the groups were unequal). To calculate the effects of capsaicin, 12-(S)-HPETE or WIN 55,212-2 application on basal excitatory glutamatergic transmission, normalized EPSC amplitudes or fEPSP slopes were averaged in the final 5 minutes of drug application and compared with EPSCs/EPSPs 5 minutes prior to drug application. In addition, to measure capsaicin's effects on holding current, the peak change in holding current was measured during bath application of 3 μM capsaicin. The n-values reported refer to the number of slices. All combined data are expressed as mean±the standard error of the mean (s.e.m.).

[2] = target: T1, TRPV1 channels (Mus musculus, UniProt Q704Y3); assay: Heat-ramp evoked inward current and depolarization in CA1 pyramidal neurons of wild-type mice; format: cell-based
T1 construct: whole-cell recordings from acutely prepared brain slices from wild type C57BL/6 mice; from tissue; host or cells: acute coronal hippocampal slices from P14-P20 wild-type C57BL/6 mice: CA1 pyramidal neurons
T1 sequence (Q704Y3 whole entry): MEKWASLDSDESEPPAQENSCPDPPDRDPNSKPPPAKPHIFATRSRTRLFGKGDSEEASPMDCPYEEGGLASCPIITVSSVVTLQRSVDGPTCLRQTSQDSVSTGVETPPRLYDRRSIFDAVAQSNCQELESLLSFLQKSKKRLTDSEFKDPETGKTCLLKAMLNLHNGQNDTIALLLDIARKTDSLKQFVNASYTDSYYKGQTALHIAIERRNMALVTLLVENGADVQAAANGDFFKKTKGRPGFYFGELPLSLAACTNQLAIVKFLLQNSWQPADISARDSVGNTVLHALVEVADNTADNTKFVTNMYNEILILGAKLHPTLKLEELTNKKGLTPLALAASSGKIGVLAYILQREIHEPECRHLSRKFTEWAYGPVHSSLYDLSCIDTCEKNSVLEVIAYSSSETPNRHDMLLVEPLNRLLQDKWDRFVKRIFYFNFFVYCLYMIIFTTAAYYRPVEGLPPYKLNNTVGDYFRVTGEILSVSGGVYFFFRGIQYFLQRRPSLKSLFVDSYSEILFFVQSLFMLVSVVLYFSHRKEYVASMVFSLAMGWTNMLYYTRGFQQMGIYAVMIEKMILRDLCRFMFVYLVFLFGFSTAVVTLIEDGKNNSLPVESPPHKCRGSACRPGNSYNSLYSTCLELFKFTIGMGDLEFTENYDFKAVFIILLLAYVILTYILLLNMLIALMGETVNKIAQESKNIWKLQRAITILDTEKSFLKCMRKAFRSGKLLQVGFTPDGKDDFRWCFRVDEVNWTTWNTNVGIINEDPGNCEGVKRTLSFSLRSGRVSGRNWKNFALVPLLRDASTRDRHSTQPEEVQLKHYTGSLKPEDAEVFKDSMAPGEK

[3] = system: area CA3 stratum pyramidale; assay: Heat-induced multi-unit activity (MUA) in hippocampal slices, field-potential recording; format: cell-based, mouse; conditions: wild-type slices pre-treated with capsazepine; p<0.05 vs untreated wild-type, n=27
Protocol: Coronal brain slices, 300-350 μm, were obtained from mice aged postnatal day 14-20 as previously described (Gibson et al., 2008; Gibson et al., 1999; McMahon & Kauer, 1997). Bathing perfusate was identical to previous except where indicated. A Haas-type interface chamber was used for field-potential recordings. Glass micropipettes were filled with 0.9% NaCl (resistance 400-700 kΩ). Simultaneous recordings were made in stratum pyramidale of CA1 and CA3 of each slice. Activity was recorded at 30° C. (5 min), ramped to 42° C. (5 min) and returned to 30° C. (10 min). Signals were amplified, digitally recorded at 10 kHz and stored (LabView).
For field-potential recordings, coronal slices, 350 μm thick, were obtained from P14-15 mice as previously described (Gibson et al., 2008; Gibson et al., 1999; McMahon & Kauer, 1997). Slices were kept at room temperature for at least 30 min until transferred to a 30° C. recording chamber. […] For all field-potential recordings, activity was recorded at 30° C. […] Signals were amplified, digitally recorded at 10 kHz and stored using an in-house LabView based program.
Multi-unit activity (MUA) was high-pass filtered at 500 Hz and spikes were detected using threshold-crossing criteria. […]
All combined data are expressed as mean±the standard error of the mean (s.e.m.). […]

Structure (SMILES)	fEPSP slopes after 10-15 minutes in capsaicin ([1]; 1 μM capsaicin, P=0.58, n=5)	effect on synaptic transmission at the CA3-CA1 synapse ([1]; 10 μM capsaicin, often with depression of presynaptic fiber volley)	heat-induced change of membrane potential in CA1 neurons ([2]; 2 μM intracellular capsazepine, current clamp, ramp 30 to 42° C., absence 19.7±4.5 mV, n=6) [mV]	effect on heat-evoked current in CA1 pyramidal neuron ([2]; bath-applied capsazepine 10 μM, voltage clamp, heat ramp)	incidence of heat-induced increased MUA in area CA3 [3]
COc1cc(CNC(=O)CCCCC=CC(C)C)ccc1O [capsaicin, 8-methyl-N-vanillyl-6-nonenamide]	102.8±5.4 % of pre-drug control values	depressed synaptic transmission	–	–	–
Oc1cc2c(cc1O)CN(C(=S)NCCc1ccc(Cl)cc1)CCC2 [capsazepine]	–	–	1.0±0.7	blocked	mimicked trpv1^−/− incidence rates of increased MUA in area CA3
